Test results: patent US20210038559A1, “CANNABINOIDS AND DERIVATIVES FOR PROMOTING IMMUNOGENICITY OF TUMOR AND INFECTED CELLS” (priority 2018, published 2021)

The compounds below were run on MHC-I expression by COLO 205 cells (assay: cells). Settings: not given.
Type: cell-based, human
Description: A panel of synthetic cannabinoids (Cayman Chemical, #9002891) was tested for MHC class I-inducing capability in COLO 205 cells as described above. COLO 205 cells were treated with the compounds at a concentration of 35 μM and evaluated for cell surface MHC class I expression after 48 hours. Cells were harvested, stained with MHC-I mAb W6/32 (Thermo Fisher). MHC-I expression was determined by flow cytometry.

**Q.** How did the “Induction Fold” value turn out when `CCCCCn1cc(C(=O)c2cccc3ccccc23)cc1-c1ccccc1C` [Example 60, [5-(2-methylphenyl)-1-pentyl-1H-pyrrol-3-yl]-1-naphthalenyl-methanone] was run?
**A.** Its value is 2.85 Fold.

**Q.** How did the “Induction Fold” value turn out when `CCCn1cc(C(=O)c2cccc3ccccc23)c2ccccc21` [Example 65, 1-naphthalenyl(1-propyl-1H-indol-3-yl)-methanone] was run?
**A.** Its value is 2.77 Fold.

**Q.** For `CCCCCn1ccc(C(=O)c2cccc3ccccc23)c1` [Example 66, 1-naphthalenyl(1-pentyl-1H-pyrrol-3-yl)-methanone], which “Induction Fold” value is on record?
**A.** The value was 2.75 Fold.

**Q.** For `CCCCCn1cc(C(=O)c2cccc3ccccc23)cc1-c1ccccc1` [Example 77, 1-naphthalenyl(1-pentyl-5-phenyl-1H-pyrrol-3-yl)-methanone], which “Induction Fold” value is on record?
**A.** The value was 2.60 Fold.

**Q.** With `CCCCCn1cc(C(=O)c2cccc3ccccc23)cc1-c1ccccc1F` [Example 85, [5-(2-fluorophenyl)-1-pentyl-1H-pyrrol-3-yl]-1-naphthalenyl-methanone] as the compound, how does the “Induction Fold” value read?
**A.** Its value is 2.52 Fold.

Same assay, conditions: Homo sapiens, COLO 205, 48 h, MHC-I expression, COLO 205 cells, compounds at 35 μM, 48 hours, flow cytometry (W6/32); read-out: Induction Fold

**Q.** Which fold induction at 35 µM does the source give for `CCCCCn1cc(C(=O)Cc2ccc(OC)cc2)c2ccccc21` [Example 59, 2-(4-methoxyphenyl)-1-(1-pentyl-1H-indol-3-yl)-ethanone] here?
**A.** The fold induction at 35 µM was 2.85.

**Q.** `CC1(C)C(C(=O)c2cn(Cc3ccc(F)cc3)c3ccccc23)C1(C)C` [Example 62, (1-(4-fluorobenzyl)-1H-indol-3-yl)(2,2,3,3-tetramethylcyclopropyl)methanone] was tested. Which fold induction at 35 µM did it give?
**A.** Its fold induction at 35 µM is 2.79.

**Q.** Which fold induction at 35 µM does the source give for `CCCCCn1cc(C(=O)Cc2ccc(Cl)cc2)c2ccccc21` [Example 64, 2-(4-chlorophenyl)-1-(1-pentyl-1H-indol-3-yl)-ethanone] here?
**A.** Its fold induction at 35 µM is 2.77.

**Q.** With `CC(C)[C@H](NC(=O)c1nn(CC2CCCCC2)c2ccccc12)C(N)=O` [Example 67, N-[(1S)-1-(aminocarbonyl)-2-methylpropyl]-1-(cyclohexylmethyl)-1H-indazole-3-carboxamide] as the compound, how does the fold induction at 35 µM read?
**A.** Its fold induction at 35 µM is 2.75.

**Q.** With `CN1CCCCC1Cn1cc(C(=O)C23CC4CC(CC(C4)C2)C3)c2ccccc21` (stereo not shown) [Example 68, [1-[(1-methyl-2-piperidinyl)methyl]-1H-indol-3-yl]tricyclo[3.3.1.13,7]dec-1-yl-methanone] as the compound, how does the fold induction at 35 µM read?
**A.** Its fold induction at 35 µM is 2.72.

**Q.** For `CCCCn1cc(C(=O)c2ccc(C)c3ccccc23)c2ccccc21` [Example 69, (1-butyl-1H-indol-3-yl)(4-methylnaphthalen-1-yl)methanone], which fold induction at 35 µM is on record?
**A.** The fold induction at 35 µM was 2.71.

**Q.** With `CC(C)C(C)n1cc(C(=O)c2cccc3ccccc23)c2ccccc21` (stereo not shown) [Example 70, (1-(3-methylbutan-2-yl)-1H-indol-3-yl)(naphthalen-1-yl)methanone] as the compound, how does the fold induction at 35 µM read?
**A.** Its fold induction at 35 µM is 2.7.

**Q.** `COc1ccccc1CC(=O)c1cn(CCC2CCCCC2)c2ccccc12` [Example 74, 1-(1-(2-cyclohexylethyl)-1H-indol-3-yl)-2-(2-methoxyphenyl)ethanone] was tested. Which fold induction at 35 µM did it give?
**A.** The fold induction at 35 µM was 2.65.

**Q.** With `CCCCCn1cc(C(=O)c2c(Cl)ccc3ccccc23)c2ccccc21` [Example 75, (2-chloronaphthalen-1-yl)(1-pentyl-1H-indol-3-yl)methanone] as the compound, how does the fold induction at 35 µM read?
**A.** Its fold induction at 35 µM is 2.65.

**Q.** Which fold induction at 35 µM does the source give for `CCCCCn1nc(C(=O)NC(C(N)=O)C(C)(C)C)c2ccccc21` (stereo not shown) [Example 76, N-[1-(aminocarbonyl)-2,2-dimethylpropyl]-1-pentyl-1H-indazole-3-carboxamide] here?
**A.** Its fold induction at 35 µM is 2.61.

**Q.** With `CCCc1ccc(C(=O)c2cn(CCC)c3ccccc23)c2ccccc12` [Example 78, (1-propyl-1H-indol-3-yl)(4-propyl-1-naphthalenyl)-methanone] as the compound, how does the fold induction at 35 µM read?
**A.** Its fold induction at 35 µM is 2.58.

**Q.** With `CCCCCn1cc(C(=O)Cc2ccccc2)c2ccccc21` [Example 80, 1-(1-pentyl-1H-indol-3-yl)-2-phenyl-ethanone] as the compound, how does the fold induction at 35 µM read?
**A.** The fold induction at 35 µM was 2.57.

**Q.** `CCCCCn1cc(C(=O)c2cccc3cccc(C)c23)c2ccccc21` [Example 81, (8-methylnaphthalen-1-yl)(1-pentyl-1H-indol-3-yl)methanone] was tested. Which fold induction at 35 µM did it give?
**A.** The fold induction at 35 µM was 2.57.

**Q.** Which fold induction at 35 µM does the source give for `CCCC(F)Cn1cc(C(=O)Oc2cccc3cccnc23)c2ccccc21` (stereo not shown) [Example 83, quinolin-8-yl 1-(2-fluoropentyl)-1H-indole-3-carboxylate] here?
**A.** The fold induction at 35 µM was 2.54.

**Q.** With `COC(=O)[C@@H](NC(=O)c1nn(CCCC(C)F)c2ccccc12)C(C)(C)C` (stereo partly drawn) [Example 84, methyl (2S)-2-(1-(4-fluoropentyl)-1H-indazole-3-carboxamido)-3,3-dimethylbutanoate] as the compound, how does the fold induction at 35 µM read?
**A.** Its fold induction at 35 µM is 2.53.

**Q.** With `CCCCCn1cc(C(=O)Cc2cccc(Cl)c2)c2ccccc21` [Example 86, 2-(3-chlorophenyl)-1-(1-pentyl-1H-indol-3-yl)-ethanone] as the compound, how does the fold induction at 35 µM read?
**A.** Its fold induction at 35 µM is 2.51.

**Q.** `CCCCCn1cc(C(=O)c2cccc3cccc(Br)c23)c2ccccc21` [Example 87, (8-bromonaphthalen-1-yl)(1-pentyl-1H-indol-3-yl)methanone] was tested. Which fold induction at 35 µM did it give?
**A.** Its fold induction at 35 µM is 2.51.

**Q.** For `CCCCCn1cc(C(=O)NC(C(N)=O)C(C)(C)C)c2ccccc21` (stereo not shown) [Example 88, N-(1-amino-3,3-dimethyl-1-oxobutan-2-yl)-1-pentyl-1H-indole-3-carboxamide], which fold induction at 35 µM is on record?
**A.** Its fold induction at 35 µM is 2.5.

**Q.** With `CCCCCn1cc(C(=O)c2c(CC)ccc3ccccc23)c2ccccc21` [Example 89, (2-ethylnaphthalen-1-yl)(1-pentyl-1H-indol-3-yl)methanone] as the compound, how does the fold induction at 35 µM read?
**A.** Its fold induction at 35 µM is 2.5.

**Q.** How did the fold induction at 35 µM turn out when `CCCCCn1cc(C(=O)c2c(OC)ccc3ccccc23)c2ccccc21` [Example 90, (2-methoxy-1-naphthalenyl)(1-pentyl-1H-indol-3-yl)-methanone] was run?
**A.** Its fold induction at 35 µM is 2.5.

**Q.** For `CCCCCn1cc(C(=O)NCc2ccccc2)c2ccccc21` [Example 91, 1-pentyl-N-(phenylmethyl)-1H-indole-3-carboxamide], which fold induction at 35 µM is on record?
**A.** Its fold induction at 35 µM is 2.48.

**Q.** `O=C(Oc1ccnc2ccccc12)c1cn(CCCCCF)c2ccccc12` [Example 92, quinolin-4-yl 1-(5-fluoropentyl)-1H-indole-3-carboxylate] was tested. Which fold induction at 35 µM did it give?
**A.** The fold induction at 35 µM was 2.47.

**Q.** Which fold induction at 35 µM does the source give for `CCCCCn1cc(C(=O)C2C(C)(C)C2(C)C)c2ccccc21` [Example 94, (1-pentyl-1H-indol-3-yl)(2,2,3,3-tetramethylcyclopropyl)-methanone] here?
**A.** Its fold induction at 35 µM is 2.45.

**Q.** Which fold induction at 35 µM does the source give for `CC(C)[C@H](NC(=O)c1cn(CC2CCCCC2)c2ccccc12)C(N)=O` [Example 96, (S)-N-(1-amino-3-methyl-1-oxobutan-2-yl)-1-(cyclohexylmethyl)-1H-indole-3-carboxamide] here?
**A.** Its fold induction at 35 µM is 2.44.

Same assay, conditions: MHC-I expression, COLO 205 cells, compounds at 35 μM, 48 hours, flow cytometry (W6/32)

**Q.** Which “Induction Fold” value does the source give for `CCCCCCC(C)(C)C1=CC(=O)C([C@H]2CCC[C@@H](O)C2)=CC1=O` [Example 61, 3′R-hydroxy-4-(2-methyloctan-2-yl)-[1,1′S-bi(cyclohexane)]-3,6-diene-2,5-dione] here?
**A.** Its value is 2.85 Fold.

**Q.** For `CCCCCn1cc(C(=O)c2cccc3ccccc23)c2ccccc21` [Example 71, (1-pentyl-1H-indol-3-yl)-1-naphthalenyl-methanone], which “Induction Fold” value is on record?
**A.** Its value is 2.69 Fold.

**Q.** Which “Induction Fold” value does the source give for `O=C(c1cccc2ccccc12)c1cn(CCCCCF)c2ccccc12` [Example 79, [1-(5-fluoropentyl)-1H-indol-3-yl]-1-naphthalenyl-methanone] here?
**A.** Its value is 2.57 Fold.

**Q.** `CN1CCCCC(n2cc(C(=O)C34CC5CC(CC(C5)C3)C4)c3ccccc32)C1` (stereo not shown) [Example 93, (3,5,7)-adamantan-1-yl(1-(1-methylazepan-3-yl)-1H-indol-3-yl)methanone] was tested. Which “Induction Fold” value did it give?
**A.** The value was 2.46 Fold.

**Q.** With `COCCn1c(C)c(C)sc1=NC(=O)C1C(C)(C)C1(C)C` [Example 95, [N(Z)]-N-[3-(2-methoxyethyl)-4,5-dimethyl-2(3H)-thiazolylidene]-2,2,3,3-tetramethyl-cyclopropanecarboxamide] as the compound, how does the “Induction Fold” value read?
**A.** The value was 2.44 Fold.
